One data set deals with rabbit CECs. Description: Rabbit lens phacoemulsification model with NAM-containing perfusate. The following applies: for corneal transparency / edema: 2 days after surgery; for corneal transparency / edema / recovery of corneal thickness / protective effect on CECs in phacoemulsification: NAM versus Gln in perfusate; for corneal transparency / edema / recovery of corneal thickness: FIG. 7; for protective effect on CECs in phacoemulsification: conclusion. Type of data set: in vivo, New Zealand white rabbits. On the procedure: Animals: New Zealand white rabbits (age, 1.5 years; weight, 5-7 kg) were purchased from Jinan Xilingjiao Biological Co., Ltd. New Zealand white rabbits were kept in a pathogen-free environment in the animal house of the Eye Institute of Shandong First Medical University.
Animal model: the pupils were dilated three times with 0.5% compound tropicamide eye drops. Sedation was performed first, and the rabbits were anesthetized according to 20 mg/kg intramuscular injection of xylazine hydrochloride injection and 3% pentobarbital sodium injection (15 mg/kg) intravenously at the ear margin. The right eye of each rabbit was subjected to phacoemulsification for lens removal using the WHITESTAR Signature® Phacoemulsification System (Signature, AMO, USA). The left eye was used as the normal eye. A 3.0-mm clear corneal tunnel incision was made at the position of 11 to 12 o'clock, and continuous curvilinear capsulorhexis was performed in the center of the anterior capsular membrane of the lens, with a torn capsule diameter of approximately 5.0 mm. Phacoemulsification was then performed to suction out the lens contents, including the nucleus of the lens and the residual lens cortex, with the setting of ultrasonication energy of 30-50% and the ultrasonication time of 4-6 min. At the end of the procedure, the New Zealand white rabbits were administered with tobramycin and dexamethasone eye ointment in the conjunctival sac.
Perfusate: balanced salt solution containing 1 mM NAM (refers to compound electrolyte intraocular irrigating solution, Shike®, Shenyang Xingqi Pharmaceutical Co., Ltd.): NAM was added to the balanced salt solution until the concentration of NAM in the perfusate was 1 mM; balanced salt solution containing 2.5 mM NAM: NAM was added to the balanced salt solution until the concentration of NAM in the perfusate was 2.5 mM; balanced salt solution containing 5 mM NAM: NAM was added to the balanced salt solution until the concentration of NAM in the perfusate was 5 mM; balanced salt solution alone as control group: an equal amount of PBS was added to the balanced salt solution.
Immunofluorescence staining: immunofluorescence detection of the expression of functional proteins ZO1 and ATP1A1.
Alizarin Red Staining: gross corneas of New Zealand rabbits were collected and fixed in sterile saline. The cornea was flattened by cutting it into four flaps using ophthalmic microscopic scissors. The corneas were stained with alizarin red staining solution for 2 min, followed by washing the corneas at least three times with sterile saline. Cover slips were put on, changes in the CECs of New Zealand rabbits were observed under a microscope, image acquisition was performed, and all experiments were repeated at least 3 times. Endothelial cell density, coefficient of variation, and hexagonal ratio were determined using alizarin red-stained images of New Zealand rabbit corneas. By using an endothelial microscope by 2 uninformed observers, cell density was normalized to the area of each image in square millimeters. For each image, an area containing at least 60 cells was selected.
Slit lamp photography: changes in corneal transparency in New Zealand rabbits were observed and recorded using a slit lamp.
Corneal thickness test: corneal thickness was analyzed and measured using optical coherence tomography (OCT) to measure central corneal thickness, with no less than three New Zealand rabbits measured at each time point.
Phacoemulsification was performed on New Zealand white rabbits, where NAM-containing intraocular perfusate was used for irrigation, and perfusate of the balanced salt solution alone was used as a control.

The test system of another data set is mouse CECs. The following applies: mice treated with high IOP, reported in the literature; cited from earlier work.
Another data set relates to Human CECs line B4G12. Description: Cellular assay: B4G12 cell damage induced by phacoemulsification in vitro. The data set is classed as cell-based. Particulars: 1 mM, 2.5 mM and 5 mM NAM; 1 hour and 24 hours after phacoemulsification; sonication 20 seconds, energy 30%; FIG. 8. On the procedure:
Preparation for cell culture in vitro: Human CECs line B4G12 was selected for culture, original medium was discarded, 3 mL of PBS buffer was added, 6.0 cm cell culture dish was shaken gently, rinsed twice, and PBS buffer was discarded. 1.0 mL of trypsin was added to completely cover the bottom of the dish, and the dish was placed in the incubator for 5 min. The dish gently shaken, tapped, and observed with a microscope. The adherent cells became suspended round cells, then 1.5 mL of complete medium [each 50 mL of human corneal endothelial cell basal medium (H-SFM, Creative Bioarray, New York, USA) supplemented with 1.5 mL of FBS and 0.5 mL of penicillin-streptomycin solution] was added to the flask on the laminar flow cabinet, and trypsin digestion of cells was stopped. The cells on all parts of the bottom of the flask were gently pipetted using the tip of the pipettor so that the cells became fully in suspension. The cell suspension was transferred to a 15 mL centrifuge tube and subjected to centrifugation at 1200 rpm for 5 min. After the centrifugation, the supernatant was discarded, 3 mL of complete medium was added to the centrifuge tube, and a resulting mixture was gently pipetted to eveness. The cells were allowed to resuspend sufficiently, then inoculated into 48-well cell culture plates at a cell density of 1×10^5 and incubated for 24 hours for subsequent experiments. […]

For `NC(=O)CC[C@H](N)C(=O)O` [Gln, glutamine], in the data set with rabbit CECs, the “corneal transparency / edema” value is “still edematous”, the “recovery of corneal thickness” value is given as “recovered more slowly” and the “protective effect on CECs in phacoemulsification” value is listed as “poor protective effect”. Moreover, in the data set with mouse CECs, the “protective effect on CECs during high IOP treatment” value was “protective effect on CECs in mice treated with high IOP”.
Turning to `NC(=O)c1cccnc1` [NAM, nicotinamide], in the data set with rabbit CECs, the “corneal transparency / edema” value was “transparent”, the “recovery of corneal thickness” value is recorded as “recovered quickly” and the “protective effect on CECs in phacoemulsification” value was “has a protective effect on CECs”. In addition, the “intraocular pressure (IOP) after phacoemulsification” value with rabbit CECs (within 7 days after surgery, versus control group, FIG. 4) is “did not cause a pathological increase in IOP within 7 days after surgery”. Moreover, in the data set on Human CECs line B4G12, the “apoptosis and cell survival of B4G12 cells after phacoemulsification” value is “could inhibit apoptosis induced by phacoemulsification and promote cell survival in a concentration-dependent manner”.

The values above are taken from US20260158018A1, “PERFUSATE CONTAINING NICOTINAMIDE FOR INTRAOCULAR SURGERY, METHOD OF PREPARATION AND USE THEREOF” (EYE INSTITUTE OF SHANDONG FIRST MEDICAL UNIVERSITY …, priority 2023, published 2026).
